Results from US4454128A, “6α-Methoxy-penicillins” (Dr. Karl Thomae GmbH, priority 1981, dated 1984).
In brackets after ≈: the same amount, converted by molar mass. Read-outs that look alike come from different tables or passages of the source.

Key:
[1] = test system: E. coli R^+ TEM(β-lactamase carrier); assay: In vitro MIC, series dilution test in microtiter system; format: cell-based; details: Escherichia coli, read-out: minimum inhibitory concentration (MIC)
Method: (§1) For the tests, the method of the series dilution test in the microtiter system was used. The substances were tested for bacteriostasis in a liquid medium. The bacteriostatic activity was tested at the following concentration: 128; 64; 32; 16; 8; 4; 2; 1; 0.5; 0.25; 0.12; 0.06 μg/ml.
(§2) A nutrient medium having the following composition was used: 10 gm of peptone, 8 gm of meat extract oxoid, 3 gm of sodium chloride, 2 gm of sec. sodium phosphate are made up to […] with distilled water (pH 7.2 to 7.4). The age of the primary cultures was about 20 hours.
(§3) The bacterial suspension was adjusted, using the photometer (according to "Eppendorf") (test tube diameter 14 mm, filter 546 nm) by reference to the turbidity of a barium sulfate comparison suspension which was produced by a barium sulfate suspension formed by the addition of 3.0 ml of 1% barium chloride solution to 97 ml of 1% sulfuric acid. After adjustment, Streptococcus aronson was diluted in the ratio 1:15 and the other test pathogens were diluted in the ratio 1:1500 with a common salt solution.
(§4) 16 mg of the test substance were weighed in 10 ml measuring flasks and solvent was added up to the mark. Further dilutions in the series were made with distilled water or the solvent in question.
(§5) The depressions in the microtiter plates were filled with 0.2 ml of nutrient medium, 0.01 ml of the corresponding diluted substance and a drop of bacterial suspension (0.01 ml), and incubated for 18 to 20 hours at 37° C. A solvent check was carried out continuously at the same time.
(§6) The reading was taken macroscopically, and the respective limiting concentration (=the lower concentration still having bateriostatic activity) was determined.
(§7) The following were used as test organisms:
(§8) Escherichia coli ATCC 11 775, Serratia marcescens ATCC 13 880, Klebsiella pneumoniae ATCC 10 031 and BC 6, Proteus Mirabilis BC 17, Proteus rettgeri BC 7, Enterobacter cloacae ATCC 13 047, E. coli R^+ TEM(β-lactamase carrier) and K. pneumoniae 1088 E (β-lactamase carrier).
(§9) Table 1 which follows lists the minimum inhibitory concentrations (MIC) determined for typical representatives of the compounds according to the invention. These are the sodium salts of compounds of the formula I, where A=p-hydroxyphenyl and R is defined as follows: […]

Proteus Mirabilis BC 17 = assay: as above; format: cell-based; details: Prot. mir. BC 17, 18 to 20 hours at 37° C., read-out: minimum inhibitory concentration (MIC)
Method: as §1, §2, §3, §4, §5, §6, §7, §8, §9

[2] = test system: Klebsiella pneumoniae BC 6; assay: as above; format: cell-based; details: BC6, K. pneum. BC 6, 18 to 20 hours at 37° C., read-out: minimum inhibitory concentration (MIC)
Method: as §1, §2, §3, §4, §5, §6, §7, §8, §9

[3] = test system: Klebsiella pneumoniae ATCC 10 031; assay: as above; format: cell-based; details: K. pneum. ATCC 10031, 18 to 20 hours at 37° C., read-out: minimum inhibitory concentration (MIC)
Method: as §1, §2, §3, §4, §5, §6, §7, §8, §9

[4] = test system: Serratia marcescens ATCC 13 880; assay: as above; format: cell-based; details: Serr. marc. ATCC 13880, 18 to 20 hours at 37° C., read-out: minimum inhibitory concentration (MIC)
Method: as §1, §2, §3, §4, §5, §6, §7, §8, §9

[5] = test system: Escherichia coli ATCC 11 775; assay: as above; format: cell-based; details: E. coli ATCC 11775, 18 to 20 hours at 37° C., read-out: minimum inhibitory concentration (MIC)
Method: as §1, §2, §3, §4, §5, §6, §7, §8, §9

[6] = test system: Enterobacter cloacae ATCC 13 047; assay: as above; format: cell-based; details: Eb. cloac. ATCC 13047, 18 to 20 hours at 37° C., read-out: minimum inhibitory concentration (MIC)
Method: as §1, §2, §3, §4, §5, §6, §7, §8, §9

[7] = test system: K. pneumoniae 1088 E (β-lactamase carrier); assay: as above; format: cell-based; details: Klebsiella pneumoniae, K. pneum. 1088 E, 18 to 20 hours at 37° C., read-out: minimum inhibitory concentration (MIC)
Method: as §1, §2, §3, §4, §5, §6, §7, §8, §9

Proteus rettgeri BC 7 = assay: as above; format: cell-based; details: Providencia rettgeri, BC7; Prot. rettg. BC 7; 18 to 20 hours at 37° C.; read-out: minimum inhibitory concentration (MIC)
Method: as §1, §2, §3, §4, §5, §6, §7, §8, §9

E. coli ATCC 11775 = assay: In vivo test on experimental E. coli infection in mice; set-up: species or system E. coli; female mice of the NMRI strain; details: Escherichia coli, ATCC11775, sc, 168 h, subcutaneous, one treatment 1 hour post infectionem, observation period 7 days, read-out: ED50 (dose at which 50% of the animals survived)
Method: A number of the compounds according to the invention were tested in vivo on experimental infections in mice. E. coli ATCC 11775 were used as the pathogenic bacteria. An intraperitoneal infection was produced with 0.2 ml of a 5% mucin suspension of the bacteria. This corresponds to about 1.4×10^6 E. coli bacteria per mouse. Female mice of the NMRI strain were divided up into groups of 10 animals, two groups were untreated, the other groups were treated subcutaneously with various doses of the penicillin according to the invention, to determine the ED50 (dose at which 50% of the animals survived). One treatment was given (1 hour post infectionem).
In both cases, the observation period was 7 days. The results of these tests with 2 representatives of the penicillins according to the invention, compared with Temocillin, are shown in Table 3 which follows: […]

[8] = test system: 20 Serratia marcescens carrying β-lactamase; assay: In vitro activity against 20 Serratia marcescens carrying β-lactamase, compared with Temocillin; format: cell-based; details: Serr. marc. (20)
Method: as §1, §2, §3, §4, §5, §6

[9] = inoculum 5 × 10^4, read-out: Geometric Mean (MIC)
[10] = inoculum 5 × 10^4, read-out: MIC Range
[11] = inoculum 5 × 10^6, read-out: Geometric Mean (MIC)

SMILES | MIC [1] [µg/mL] | MIC (Proteus Mirabilis BC 17) [µg/mL] | MIC [2] [µg/mL] | MIC [3] [µg/mL] | MIC [4] [µg/mL] | MIC [5] [µg/mL] | MIC [6] [µg/mL] | MIC [7] [µg/mL] | MIC (Proteus rettgeri BC 7) [µg/mL] | ED50 (E. coli ATCC 11775) [mg/kg] | MIC [8, 9] [µg/mL] | MIC [8, 10] [µg/mL] | MIC [8, 11] [µg/mL] | MIC ([8]; inoculum 5 × 10^6, read-out: MIC Range) [µg/mL]
CO[C@@]1(NC(=O)C(C(=O)O)c2ccsc2)C(=O)N2[C@@H](C(=O)O)C(C)(C)S[C@@H]21 (stereo partly drawn) [Compound E, Temocillin, reference compound] | 8 (≈ 19.3 µM) | 2 (≈ 4.83 µM) | 2 (≈ 4.83 µM) | 4 (≈ 9.65 µM) | 8 (≈ 19.3 µM) | 4 (≈ 9.65 µM) | 4 (≈ 9.65 µM) | 4 (≈ 9.65 µM) | 4 (≈ 9.65 µM) | > 20 | 10.2 (≈ 24.6 µM) | 8 to 16 (≈ 19.3 to 38.6 µM) | 24.3 (≈ 58.6 µM) | –
CO[C@@]1(NC(=O)C(NC(=O)Nc2cnc(Nc3ccc(S(N)(=O)=O)cc3)nc2O)c2ccc(O)cc2)C(=O)N2[C@@H](C(=O)O)C(C)(C)S[C@@H]21 (stereo partly drawn) [A] | 1 (≈ 1.42 µM) | 1 (≈ 1.42 µM) | 1 (≈ 1.42 µM) | 1 (≈ 1.42 µM) | 1 (≈ 1.42 µM) | 1 (≈ 1.42 µM) | 1 (≈ 1.42 µM) | 4 (≈ 5.69 µM) | 2 (≈ 2.85 µM) | 4 | 2.8 (≈ 3.98 µM) | 2 to 8 (≈ 2.85 to 11.4 µM) | 10.2 (≈ 14.5 µM) | 4 to 32 (≈ 5.69 to 45.5 µM)
CO[C@@]1(NC(=O)C(NC(=O)Nc2cnc(NCc3ccc(S(N)(=O)=O)cc3)nc2O)c2ccc(O)cc2)C(=O)N2[C@@H](C(=O)O)C(C)(C)S[C@@H]21 (stereo partly drawn) [D] | 2 (≈ 2.79 µM) | 0.5 (≈ 0.698 µM) | 1 (≈ 1.4 µM) | 1 (≈ 1.4 µM) | 2 (≈ 2.79 µM) | 2 (≈ 2.79 µM) | 1 (≈ 1.4 µM) | 8 (≈ 11.2 µM) | 4 (≈ 5.58 µM) | – | – | – | – | –
CO[C@@]1(NC(=O)C(NC(=O)Nc2cnc(NCc3ccc(S(N)(=O)=O)s3)nc2O)c2ccc(O)cc2)C(=O)N2[C@@H](C(=O)O)C(C)(C)S[C@@H]21 (stereo partly drawn) [C] | 2 (≈ 2.77 µM) | 0.12 (≈ 0.166 µM) | 1 (≈ 1.38 µM) | 1 (≈ 1.38 µM) | 2 (≈ 2.77 µM) | 1 (≈ 1.38 µM) | 1 (≈ 1.38 µM) | 8 (≈ 11.1 µM) | 2 (≈ 2.77 µM) | – | – | – | – | –
